Activity calls are given as the source filed them.
Legend:
[1] = biological target: T1, Ubiquitin-conjugating enzyme E2 N (Homo sapiens, UniProt P61088); assay type: functional;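 note: Dose-response confirmation in a TR-FRET assay detecting UBC13-driven polyubiquitin chain formation, inhibition measured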
T1 sequence (P61088 whole entry): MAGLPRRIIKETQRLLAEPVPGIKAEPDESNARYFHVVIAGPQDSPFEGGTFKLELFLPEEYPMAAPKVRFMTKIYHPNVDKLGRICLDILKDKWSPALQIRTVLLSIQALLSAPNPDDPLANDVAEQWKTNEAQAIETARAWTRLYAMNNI

[2] = biological target: Nonstructural protein 1 (Influenza A virus, UniProt Q194T2); assay type: functional, Influenza A virus (A/California/07/2009(H1N1))
Sequence of Nonstructural protein 1 (Q194T2 whole entry): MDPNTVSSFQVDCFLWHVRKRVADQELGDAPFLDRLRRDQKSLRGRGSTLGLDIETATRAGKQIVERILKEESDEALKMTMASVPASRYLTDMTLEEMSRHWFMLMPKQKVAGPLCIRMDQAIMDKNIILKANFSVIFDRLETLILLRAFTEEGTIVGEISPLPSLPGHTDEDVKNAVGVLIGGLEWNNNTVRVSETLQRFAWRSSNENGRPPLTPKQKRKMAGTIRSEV

[3] = biological target: Cytochrome P450 2D6 (Homo sapiens, UniProt P10635);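 note: CYP2D6 member of a cytochrome P450 panel assay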
Sequence of Cytochrome P450 2D6 (P10635 whole entry, the tested form may be a part): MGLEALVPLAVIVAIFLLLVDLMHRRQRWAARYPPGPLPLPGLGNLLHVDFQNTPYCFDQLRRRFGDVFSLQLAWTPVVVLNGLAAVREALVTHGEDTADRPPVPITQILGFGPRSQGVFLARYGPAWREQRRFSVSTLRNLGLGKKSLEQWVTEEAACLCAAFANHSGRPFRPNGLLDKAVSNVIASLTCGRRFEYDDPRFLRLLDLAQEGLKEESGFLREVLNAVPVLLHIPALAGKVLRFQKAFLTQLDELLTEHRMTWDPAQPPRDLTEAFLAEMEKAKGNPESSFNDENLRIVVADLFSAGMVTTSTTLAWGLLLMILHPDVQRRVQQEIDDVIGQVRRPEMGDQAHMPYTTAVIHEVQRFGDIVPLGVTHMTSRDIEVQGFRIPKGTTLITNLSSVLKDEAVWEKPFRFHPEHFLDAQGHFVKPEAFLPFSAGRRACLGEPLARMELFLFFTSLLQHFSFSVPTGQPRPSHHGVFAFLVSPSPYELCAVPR

[4] = inhibitors of clade B AD8 Env fusion, dose response, cell-based, cherry-pick (AID 652062); assay type: functional;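 note: luciferase signal from cell-cell fusion driven by HIV-1 clade B AD8 Env; potency is for inhibitors of fusion seen as a drop in luminescence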
[5] = biological target: Cytochrome P450 2C9 (Homo sapiens, UniProt P11712)
Sequence of Cytochrome P450 2C9 (P11712 whole entry): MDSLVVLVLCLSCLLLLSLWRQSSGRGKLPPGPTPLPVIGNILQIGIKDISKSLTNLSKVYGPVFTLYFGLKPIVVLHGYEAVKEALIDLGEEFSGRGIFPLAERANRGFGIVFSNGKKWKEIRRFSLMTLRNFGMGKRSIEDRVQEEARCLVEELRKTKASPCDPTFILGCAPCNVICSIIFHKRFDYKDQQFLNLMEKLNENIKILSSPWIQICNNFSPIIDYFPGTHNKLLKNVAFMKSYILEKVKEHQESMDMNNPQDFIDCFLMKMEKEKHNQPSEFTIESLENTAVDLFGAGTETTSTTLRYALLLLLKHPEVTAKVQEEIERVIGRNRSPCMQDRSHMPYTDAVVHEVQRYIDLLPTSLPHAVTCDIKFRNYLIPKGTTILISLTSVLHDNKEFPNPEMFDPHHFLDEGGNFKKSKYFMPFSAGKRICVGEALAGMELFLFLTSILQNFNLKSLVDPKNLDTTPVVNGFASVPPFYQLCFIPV

[6] = inhibitors of intracellular T. cruzi replication, confirmation, NIH3T3 host cells, beta-gal luminescence (AID 2044); assay type: functional, cell-based;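 note: intracellular parasites grown in NIH/3T3 mouse fibroblasts as host cells; luminescent beta-galactosidase reporter signal from transgenic T. cruzi replicating inside host cells; inhibitors lower the luminescence signal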
[7] = cells; assay type: functional
[8] = cytotoxicity toward NIH3T3 fibroblasts, dose response, counter-screen, cell-based, ATP luminescence, mouse fibroblasts (AID 2010); assay type: functional; settings: NIH3T3;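 note: cells exposed to compound for about 90 hours before reading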
[9] = growth suppression of PTEN-null colon cells, dose response, cell-based, HCT116 PTEN knockout (AID 1047); assay type: functional;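 note: HCT116 colon tumor cells with PTEN knocked out; cells exposed to compound for 60 hours before readout; potency for loss of cell viability measured by luminescence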
[10] = growth suppression of beta-catenin-knockout colon cells, dose response, cell-based, HCT116, human colon tumor (AID 1045); assay type: functional;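 note: HCT116 colon tumor cells with beta catenin knocked out; cells exposed to compound for 60 hours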
[11] = NIH-3T3 fibroblast cytotoxicity, dose response, cytotoxicity control, cell-based, fluorescence, Alamar Blue, secondary assay (AID 2327); assay type: functional;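 note: NIH-3T3 mouse fibroblasts cultured with fluconazole at 8 µg/mL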
[12] = C. albicans growth with fluconazole, confirmation, fluorescence, retest (AID 2467); assay type: functional, cell-based
[13] = biological target: T2, Calpain-2 catalytic subunit (Sus scrofa, UniProt P43367); assay: pig calpain II inhibitor potency, dose response, biochemical, fluorogenic peptide substrate (AID 1420); assay type: functional
T2 sequence (P43367 whole entry): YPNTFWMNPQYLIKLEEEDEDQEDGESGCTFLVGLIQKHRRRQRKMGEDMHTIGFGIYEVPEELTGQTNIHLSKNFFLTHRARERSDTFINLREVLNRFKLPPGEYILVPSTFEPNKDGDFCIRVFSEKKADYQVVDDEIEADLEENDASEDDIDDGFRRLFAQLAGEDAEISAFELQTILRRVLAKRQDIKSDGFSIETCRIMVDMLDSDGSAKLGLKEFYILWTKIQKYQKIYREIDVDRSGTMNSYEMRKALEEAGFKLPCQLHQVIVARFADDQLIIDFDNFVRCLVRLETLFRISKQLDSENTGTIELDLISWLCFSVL

[14] = biological target: Luciferin 4-monooxygenase (Photinus pyralis, UniProt P08659); assay: firefly luciferase enzyme inhibitors, dose response, biochemical, luminescence (AID 1891)
Sequence of Luciferin 4-monooxygenase (P08659 whole entry): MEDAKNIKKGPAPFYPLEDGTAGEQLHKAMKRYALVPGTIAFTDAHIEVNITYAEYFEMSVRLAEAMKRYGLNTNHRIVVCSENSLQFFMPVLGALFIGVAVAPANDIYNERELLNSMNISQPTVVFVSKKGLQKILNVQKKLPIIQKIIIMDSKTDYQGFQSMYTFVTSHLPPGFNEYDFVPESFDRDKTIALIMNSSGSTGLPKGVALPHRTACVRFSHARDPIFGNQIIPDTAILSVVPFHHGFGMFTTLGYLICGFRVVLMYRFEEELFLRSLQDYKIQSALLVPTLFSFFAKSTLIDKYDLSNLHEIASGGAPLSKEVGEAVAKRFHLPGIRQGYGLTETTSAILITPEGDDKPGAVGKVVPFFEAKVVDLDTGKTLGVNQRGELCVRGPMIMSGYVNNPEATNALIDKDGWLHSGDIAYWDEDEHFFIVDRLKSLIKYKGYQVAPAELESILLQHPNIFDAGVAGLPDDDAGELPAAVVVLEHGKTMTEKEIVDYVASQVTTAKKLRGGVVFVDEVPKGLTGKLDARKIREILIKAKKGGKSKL

[15] = Luminescence Cell-Based Dose Confirmation HTS to Identify Inhibitors of Platelet Dense Granule Release. [Related pubchem assays: 1663 (Primary HTS), 1678 (Summary of Project)]; assay type: functional
[16] = biological target: T3, Cytochrome P450 1A2 (Homo sapiens, UniProt P05177);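 note: PubChem cytochrome P450 panel assay, CYP1A2 panel member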
T3 sequence (P05177 whole entry): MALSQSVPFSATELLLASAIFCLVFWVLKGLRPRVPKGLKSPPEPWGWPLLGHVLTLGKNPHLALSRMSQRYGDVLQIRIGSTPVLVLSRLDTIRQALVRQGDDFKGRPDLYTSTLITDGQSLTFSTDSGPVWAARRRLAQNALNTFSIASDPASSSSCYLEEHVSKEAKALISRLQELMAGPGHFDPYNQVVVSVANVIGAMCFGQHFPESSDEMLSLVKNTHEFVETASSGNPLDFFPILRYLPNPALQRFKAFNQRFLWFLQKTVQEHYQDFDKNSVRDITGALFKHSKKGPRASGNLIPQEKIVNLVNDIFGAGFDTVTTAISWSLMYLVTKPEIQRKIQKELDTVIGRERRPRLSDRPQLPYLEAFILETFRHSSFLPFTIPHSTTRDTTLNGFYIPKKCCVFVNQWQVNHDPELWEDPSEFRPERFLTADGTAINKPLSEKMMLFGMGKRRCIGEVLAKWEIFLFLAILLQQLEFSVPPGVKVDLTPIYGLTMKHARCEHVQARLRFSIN

[17] = biological target: Cytochrome P450 2C19 (Homo sapiens, UniProt P33261); assay: Cytochrome panel assay with activity outcomes. Panel member name: p450-cyp2c19 Compounds with AC50 equal or less than 10 uM are considered active; assay type: functional
Sequence of Cytochrome P450 2C19 (P33261 whole entry): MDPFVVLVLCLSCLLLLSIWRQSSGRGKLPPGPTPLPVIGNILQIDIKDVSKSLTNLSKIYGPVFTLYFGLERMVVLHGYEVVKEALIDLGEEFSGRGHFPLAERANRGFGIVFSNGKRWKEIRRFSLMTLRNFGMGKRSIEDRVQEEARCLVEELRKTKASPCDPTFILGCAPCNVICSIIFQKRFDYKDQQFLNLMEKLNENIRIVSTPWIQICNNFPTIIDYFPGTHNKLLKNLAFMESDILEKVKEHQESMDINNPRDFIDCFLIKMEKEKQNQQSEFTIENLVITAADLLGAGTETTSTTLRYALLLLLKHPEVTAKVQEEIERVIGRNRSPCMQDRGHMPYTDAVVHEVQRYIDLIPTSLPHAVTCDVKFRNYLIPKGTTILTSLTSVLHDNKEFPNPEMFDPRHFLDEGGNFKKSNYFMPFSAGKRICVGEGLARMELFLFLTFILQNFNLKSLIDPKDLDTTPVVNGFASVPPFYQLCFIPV

[18] = biological target: T4, Protein RecA (Mycobacterium tuberculosis, UniProt P9WHJ3); assay: Fluorescence Cell-Free Homogeneous Dose Retest to Identify Inhibitors of RecA-Intein Splicing Activity. [Related pubchem assays (depositor defined):AID2097, AID2223, AID489010, AID492950]; assay type: functional
T4 sequence (P9WHJ3 whole entry): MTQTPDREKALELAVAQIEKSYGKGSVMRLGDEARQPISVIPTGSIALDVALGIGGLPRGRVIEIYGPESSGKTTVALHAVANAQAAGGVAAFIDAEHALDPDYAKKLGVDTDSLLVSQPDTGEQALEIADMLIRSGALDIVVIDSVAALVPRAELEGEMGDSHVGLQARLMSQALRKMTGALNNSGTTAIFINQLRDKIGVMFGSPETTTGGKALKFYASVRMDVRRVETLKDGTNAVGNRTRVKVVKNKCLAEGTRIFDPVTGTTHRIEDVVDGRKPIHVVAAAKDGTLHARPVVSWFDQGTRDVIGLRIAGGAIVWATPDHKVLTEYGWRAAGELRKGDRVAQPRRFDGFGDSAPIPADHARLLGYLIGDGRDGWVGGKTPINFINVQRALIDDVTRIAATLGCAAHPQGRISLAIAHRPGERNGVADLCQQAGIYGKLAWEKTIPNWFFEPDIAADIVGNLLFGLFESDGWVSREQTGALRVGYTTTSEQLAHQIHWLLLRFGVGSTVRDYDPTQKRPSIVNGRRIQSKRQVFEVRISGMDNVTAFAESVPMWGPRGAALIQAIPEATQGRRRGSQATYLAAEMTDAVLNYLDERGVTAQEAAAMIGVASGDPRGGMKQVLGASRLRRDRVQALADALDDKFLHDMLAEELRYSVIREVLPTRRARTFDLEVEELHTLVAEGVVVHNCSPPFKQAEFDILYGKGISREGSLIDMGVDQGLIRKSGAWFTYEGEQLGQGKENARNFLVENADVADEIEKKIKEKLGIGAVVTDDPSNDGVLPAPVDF

[19] = biological target: T5, Replicative DNA helicase DnaB (Mycobacterium tuberculosis, UniProt P9WMR3); assay: DnaB intein splicing inhibitors, dose response, biochemical, cell-free fluorescence (AID 449749); assay type: functional
T5 sequence (P9WMR3 whole entry): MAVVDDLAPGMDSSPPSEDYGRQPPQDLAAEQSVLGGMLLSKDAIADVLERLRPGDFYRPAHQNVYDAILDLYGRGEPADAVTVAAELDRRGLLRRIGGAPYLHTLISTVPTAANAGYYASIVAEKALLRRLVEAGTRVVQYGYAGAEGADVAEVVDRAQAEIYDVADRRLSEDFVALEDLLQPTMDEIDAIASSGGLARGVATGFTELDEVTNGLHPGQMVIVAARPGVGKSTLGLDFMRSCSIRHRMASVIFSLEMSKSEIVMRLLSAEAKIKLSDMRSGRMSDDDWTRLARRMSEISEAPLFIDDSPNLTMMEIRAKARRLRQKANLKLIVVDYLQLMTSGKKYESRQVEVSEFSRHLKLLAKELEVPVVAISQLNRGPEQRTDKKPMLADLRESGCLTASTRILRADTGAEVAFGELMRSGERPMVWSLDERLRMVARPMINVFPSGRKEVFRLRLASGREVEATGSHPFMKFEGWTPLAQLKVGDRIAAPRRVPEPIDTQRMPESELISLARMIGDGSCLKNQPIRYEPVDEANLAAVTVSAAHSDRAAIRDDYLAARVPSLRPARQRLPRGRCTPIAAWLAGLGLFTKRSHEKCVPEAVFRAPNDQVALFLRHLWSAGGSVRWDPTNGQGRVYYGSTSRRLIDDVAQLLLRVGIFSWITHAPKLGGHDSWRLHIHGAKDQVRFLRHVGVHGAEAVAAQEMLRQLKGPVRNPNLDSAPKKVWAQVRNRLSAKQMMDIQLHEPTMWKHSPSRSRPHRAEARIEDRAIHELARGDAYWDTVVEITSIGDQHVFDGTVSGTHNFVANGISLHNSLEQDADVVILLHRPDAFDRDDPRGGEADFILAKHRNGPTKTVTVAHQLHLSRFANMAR

[20] = biological target: Cytochrome P450 3A4 (Homo sapiens, UniProt P08684);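 note: CYP3A4 tested as one member of a cytochrome P450 panel screen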
Sequence of Cytochrome P450 3A4 (P08684 whole entry): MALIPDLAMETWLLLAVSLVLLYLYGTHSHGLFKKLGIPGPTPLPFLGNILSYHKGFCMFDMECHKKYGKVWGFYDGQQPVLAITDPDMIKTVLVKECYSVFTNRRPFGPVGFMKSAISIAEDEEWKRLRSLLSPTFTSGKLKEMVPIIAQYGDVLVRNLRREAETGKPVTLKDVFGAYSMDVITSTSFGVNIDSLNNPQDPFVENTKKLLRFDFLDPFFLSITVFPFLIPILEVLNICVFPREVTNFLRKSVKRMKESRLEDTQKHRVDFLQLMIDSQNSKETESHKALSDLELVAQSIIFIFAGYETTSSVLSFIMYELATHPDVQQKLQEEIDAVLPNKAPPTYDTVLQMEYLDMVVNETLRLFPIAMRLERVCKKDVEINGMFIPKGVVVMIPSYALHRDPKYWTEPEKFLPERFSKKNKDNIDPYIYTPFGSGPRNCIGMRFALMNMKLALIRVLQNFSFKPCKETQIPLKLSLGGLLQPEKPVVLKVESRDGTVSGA

[21] = test system: BJ; assay: cells; assay type: functional, cell-based; settings: Homo sapiens
[22] = test system: BJ; assay: cytotoxicity toward BJ-TERT fibroblasts, dose response, cell-based, RAS-independent, luminescence (AID 1933); assay type: functional; settings: Homo sapiens
[23] = cytotoxicity toward DRD oncogenic fibroblasts, dose response, cell-based, non-viral oncogenic, luminescence (AID 1934); assay type: functional; settings: Homo sapiens
[24] = test system: BJ; assay: cytotoxicity toward BJ-TERT-LT-ST fibroblasts, dose response, cell-based, RAS-independent, luminescence (AID 1935); assay type: functional; settings: Homo sapiens;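 note: BJ fibroblasts immortalized with TERT plus LT and ST oncogenes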

CN(C)CCCN(C(=O)c1ccc2c(c1)CCCC2)c1nc2ccc(Cl)cc2s1
IC50 [1]: > 20 µM (inactive)
IC50 [2]: > 100 µM (active)

O=C(Nc1cccc(C(F)(F)F)c1)c1ccc(Cn2cc(Br)cn2)o1
AC50 [3]: 22.4 µM (inconclusive)
AC50 [4]: 29.6 µM (active)

CC(C)(C)NC[C@H](O)COc1nsnc1N1CCOCC1 [TIMOLOL]
AC50 [5]: inactive

O=C(c1ccc([N+](=O)[O-])cc1[N+](=O)[O-])N1CCc2ccccc21
EC50 [6]: 0.7 µM (active)
IC50 [7]: 0.21 µM (active)
EC50 [8]: > 60 µM (not active)

Cc1ccccc1N=C(S)NCc1ccc2[nH]c3c(c2c1)CCCC3
IC50 [2]: > 100 µM (active)

CCCCn1cc[n+](C2=C([N-]S(=O)(=O)c3ccccc3)C(=O)c3ccccc3C2=O)c1
EC50 [9]: 5.34 µM (active)
EC50 [10]: 5.73 µM (active)

COC(=O)C1CCN(Cc2c(C(=O)N3C[C@@H](C)O[C@@H](C)C3)nc3ccc(Cl)cn23)CC1
EC50 [11]: > 150 µM (inactive)
EC50 [12]: > 38 µM (not active)

CC(=O)Oc1ccc2ccccc2c1C(NC(=O)Cc1ccccc1)c1ccccc1Cl (stereo not given)
EC50 [9]: 22.4 µM (active)
EC50 [10]: 27.7 µM (active)

COc1ccc(/C=C2\N=C(SC)NC2=O)cc1
EC50 [11]: > 150 µM (inactive)
EC50 [12]: > 38 µM (not active)

NCCCNC(=O)Cn1c(=O)c2c3c(sc2n(Cc2ccccc2)c1=O)CCCC3
IC50 [2]: > 100 µM (active)

O=C(Nc1cnn(Cc2ccc(F)cc2)c1)C(c1ccccc1)c1ccccc1
IC50 [13]: 9.63 µM (not active)
EC50 [14]: 49.5 µM (active)
EC50 [15]: 18.2 µM (active)

CN(C)C(=O)c1ccc(-c2ccc3ncnc(N4CCC(C(=O)O)CC4)c3c2)cc1
AC50 [16]: 39.8 µM (inconclusive)
AC50 [5]: inconclusive

CCCCN(C)CCCNC(=O)C[S+]([O-])Cc1nc(-c2ccc(OC)c(OC)c2)oc1C (stereo not given)
AC50 [17]: inconclusive
AC50 [5]: inconclusive

COc1cc(C(=O)NCc2ccc3c(c2)cc(C)n3C)cc(OC)c1OC
IC50 [13]: > 50 µM (not active)

CCOC(=O)C1(Cc2cccc(OC)c2)CCN(Cc2cccc(OCC)c2O)CC1
IC50 [13]: 8.3 µM (not active)

O=c1c(-c2ccc(F)cc2)nc2cnc(N3CCOCC3)nc2n1C[C@H]1CCCO1
AC50 [17]: inconclusive
AC50 [5]: inconclusive

O=c1[nH]cc(/N=C/c2cc([N+](=O)[O-])ccc2O)c(=O)[nH]1
EC50 [18]: 5.48 µM (active)
AC50 [19]: 5.98 µM (active)
EC50 [11]: > 150 µM (inactive)
EC50 [12]: > 38 µM (not active)

COCCCN=C(S)NNC(=O)C1CC1c1ccc(C(C)(C)C)cc1 (stereo not given)
IC50 [13]: > 50 µM (not active)

CCOC(=O)c1oc2nc(CC(C)C)c3c(c2c1N)CCC3
EC50 [18]: > 380 µM (inactive)
AC50 [5]: inconclusive
AC50 [19]: 91.7 µM (active)
AC50 [3]: 25.1 µM (inconclusive)

COc1cc2ccccc2cc1C(=O)N(CCN(C)C)c1nc2ccc(Br)cc2s1
EC50 [11]: 101 µM (active)
EC50 [12]: > 38 µM (not active)

O=C(CSCc1c(F)cccc1Cl)NCC1CCCO1 (stereo not given)
AC50 [5]: inconclusive

C/C(=N\NC(=O)c1ccc(Cl)cc1)c1ccc(Br)s1
EC50 [6]: 1.91 µM (active)
AC50 ([17]; read-out: AC50): 17.8 µM (inconclusive)
AC50 [20]: 14.1 µM (inconclusive)
AC50 [5]: inconclusive

CCN(CC)S(=O)(=O)c1ccc(C)c(NC(S)=NNC(=O)C2CC2)c1
IC50 [13]: > 50 µM (not active)

Oc1c(Cl)cc(CN2CCCCC2)c2cccnc12
EC50 [21]: 25.9 µM (inconclusive)
EC50 [22]: 1.39 µM (active)
EC50 [23]: 53.1 µM (inconclusive)
EC50 [24]: 76.1 µM (inconclusive)

— ChEMBL document CHEMBL1201862, “PubChem BioAssay data set” (2004)
